Measurements: patent US6921770B2 (priority 2000, dated 2005)

System: rice blast fungi
Assay type: in vivo, Pyricularia grisea

Compound	Inhibiting Ratio (%) (at 250 ppm)
Br.Cn1c(CC(=O)Nc2ccccc2)csc1=Nc1ccc(C(F)(F)F)cc1 [Compound 2, 2-(4-trifluoromethylphenylimino)-3-methyl-4-(N-phenylcarbamoylmethyl)-1,3-thiazol-4-ine hydrobromide]	86
Cl.Cn1c(CC(=O)Nc2ccccc2F)csc1=Nc1ccc(OC(F)(F)F)cc1 [Compound 79, 2-(4-trifluoromethoxyphenylimino)-3-methyl-4-[N-(2-fluorophenyl)carbamoylmethyl]-1,3-thiazol-4-ine hydrochloride]	90
Br.CC(C)Oc1cccc(N=c2scc(CC(=O)Nc3ccc(Cl)cc3)n2C)c1 [Compound 303, 2-(3-isopropoxyphenylimino)-3-methyl-4-[N-(4-chlorophenyl)carbamoylmethyl]-1,3-thiazol-4-ine hydrobromide]	100
Br.CC(C)OC(=O)c1cc(N=c2scc(CC(=O)Nc3ccccc3)n2C)ccc1Cl [Compound 23, 2-(4-chloro-3-isopropyloxycarbonylphenylimino)-3-methyl-4-(N-phenylcarbamoylmethyl)-1,3-thiazol-4-ine hydrobromide]	96
Br.COc1ccc(NC(=O)Cc2csc(=Nc3ccc(OC(C)C)cc3)n2C)cc1 [Compound 313, 2-(4-isopropoxyphenylimino)-3-methyl-4-[N-(4-methoxyphenyl)carbamoylmethyl]-1,3-thiazol-4-ine hydrobromide]	100
Cc1ccc(NC(=O)Cc2csc(=Nc3ccccc3F)n2C)cc1Cl.Cl [Compound 235, 2-(2-fluorophenylimino)-3-methyl-4-[N-(3-chloro-4-methylphenyl)carbamoylmethyl]-4-thiazoline hydrochloride]	92
Cl.Cn1c(CC(=O)Nc2ccc(Br)cc2)csc1=Nc1ccc(Oc2ccccc2)cc1 [Compound 141, 2-(4-phenoxyphenylimino)-3-methyl-4-[N-(4-bromophenyl)carbamoylmethyl]-1,3-thiazol-4-ine hydrochloride]	99
Cl.Cn1c(CC(=O)Nc2ccc(OC(F)(F)F)cc2)csc1=Nc1ccc(F)cc1F [Compound 192, 2-(2,4-difluorophenylimino)-3-methyl-4-[N-(4-trifluoromethoxyphenyl)carbamoylmethyl]-1,3-thiazol-4-ine hydrochloride]	92
Br.Cc1ccc(NC(=O)Cc2csc(=Nc3ccc(Cl)cc3C)n2C)cc1 [Compound 32, 2-(4-chloro-2-methylphenylimino)-3-methyl-4-[N-(4-methylphenyl)carbamoylmethyl]-1,3-thiazol-4-ine hydrobromide]	100
Cn1c(CC(=O)Nc2ccc(Cl)cc2)csc1=Nc1ccc(C#N)cc1 [Compound 329, 2-(4-cyanophenylimino)-3-methyl-4-[N-(4-chlorophenyl)carbamoylmethyl]-1,3-thiazol-4-ine]	100
Br.Cc1ccc(NC(=O)Cc2csc(=Nc3ccc(Cl)cc3Cl)n2C)cc1 [Compound 49, 2-(2,4-dichlorophenylimino)-3-methyl-4-[N-(4-methylphenyl)carbamoylmethyl]-1,3-thiazol-4-ine hydrobromide]	100
Br.COc1ccc(NC(=O)Cc2csc(=Nc3cccc(C)c3)n2C)cc1 [Compound 328, 2-(3-methylphenylimino)-3-methyl-4-[N-(4-methoxyphenyl)carbamoylmethyl]-1,3-thiazol-4-ine hydrobromide]	97
Cl.Cn1c(CC(=O)Nc2ccc(Cl)cc2)csc1=Nc1ccc(Br)cc1 [Compound 130, 2-(4-bromophenylimino)-3-methyl-4-[N-(4-chlorophenyl)carbamoylmethyl]-1,3-thiazol-4-ine hydrochloride]	98
CC(C)Oc1cc(N=c2scc(CC(=O)Nc3ccc(Br)cc3)n2C)c(F)cc1Cl.Cl [Compound 185, 2-(4-chloro-5-isopropoxy-2-fluorophenylimino)-3-methyl-4-[N-(4-bromophenyl)carbamoylmethyl]-1,3-thiazol-4-ine hydrochloride]	97
Cc1ccc(NC(=O)Cc2csc(=Nc3ccc(C#N)cc3)n2C)cc1Cl.Cl [Compound 228, 2-(4-cyanophenylimino)-3-methyl-4-[N-(3-chloro-4-methylphenyl)carbamoylmethyl]-4-thiazoline hydrochloride]	97
Br.Cc1ccc(NC(=O)Cc2csc(=Nc3ccc(Cl)c(C(F)(F)F)c3)n2C)cc1 [Compound 53, 2-(4-chloro-3-trifluoromethylphenylimino)-3-methyl-4-[N-(4-methylphenyl)carbamoylmethyl]-1,3-thiazol-4-ine hydrobromide]	99
Br.Cc1ccc(N=c2scc(CC(=O)Nc3cccc(Cl)c3)n2C)cc1Cl [Compound 62, 2-(3-chloro-4-methylphenylimino)-3-methyl-4-[N-(3-chlorophenyl)carbamoylmethyl]-1,3-thiazol-4-ine hydrobromide]	100
Br.Cc1ccc(NC(=O)Cc2csc(=Nc3ccc(OC(F)(F)F)cc3)n2C)cc1 [Compound 47, 2-(4-trifluoromethoxyphenylimino)-3-methyl-4-[N-(4-methylphenyl)carbamoylmethyl]-1,3-thiazol-4-ine hydrobromide]	100
Cl.Cn1c(CC(=O)Nc2ccc(OC(F)(F)F)cc2)csc1=Nc1ccc(OC(F)(F)F)cc1 [Compound 108, 2-(4-trifluoromethoxyphenylimino)-3-methyl-4-[N-(4-trifluoromethoxyphenyl)carbamoylmethyl]-1,3-thiazol-4-ine hydrochloride]	91
COc1ccc(N=c2scc(CC(=O)Nc3ccc(Cl)cc3)n2C)cc1.Cl [Compound 118, 2-(4-methoxyphenylimino)-3-methyl-4-[N-(4-chlorophenyl)carbamoylmethyl]-1,3-thiazol-4-ine hydrochloride]	99
Cl.Cn1c(CC(=O)Nc2ccc(Br)cc2)csc1=Nc1ccc(C(F)(F)F)cc1 [Compound 132, 2-(4-trifluoromethylphenylimino)-3-methyl-4-[N-(4-bromophenyl)carbamoylmethyl]-1,3-thiazol-4-ine hydrochloride]	99
Br.COc1ccc(NC(=O)Cc2csc(=Nc3ccccc3C)n2C)cc1 [Compound 312, 2-(2-methylphenylimino)-3-methyl-4-[N-(4-methoxyphenyl)carbamoylmethyl]-1,3-thiazol-4-ine hydrobromide]	25
Cc1ccc(N=c2scc(CC(=O)Nc3ccc(Br)cc3)n2C)c(C)c1.Cl [Compound 135, 2-(2,4-dimethylphenylimino)-3-methyl-4-[N-(4-bromophenyl)carbamoylmethyl]-1,3-thiazol-4-ine hydrochloride]	98
